“Also recorded” adds a separate entry of the source. Ends that are not written are not given here.
Key:
[1] = system: monocytes; assay: Monocyte activation, TNFα and IL-1β ELISA; type: cell-based, human; details: for TNFα induction from monocytes (7 NCL peptides): peptides 50 or 200 μg/ml
Procedure: Buffy coat fractions were obtained from healthy blood donors at the Singapore Health Sciences Authority, with Institutional ethics approval, and PBMC were isolated using Ficoll-Paque (GE Healthcare). To isolate monocytes, PBMC were re-suspended to 1×10^7 cells/ml in the RPMI medium contained 5% (v/v) BCS and incubated for 1 hr in T75 flasks (20 ml/flask). Monocytes that adhered were harvested. To culture macrophages and DC [Cao, W., et al., Blood 107: 2777-2785, (2006), incorporated herein by reference], monocytes were resuspended to 1×10^6 cells/ml and cultured in 6-well plates (2 ml/well). Macrophages were cultured by adding M-CSF to 20 ng/ml and DC were cultured with 20 ng/ml GM-CSF and 40 ng/ml IL-4. M-CSF, GM-CSF and IL-4 were obtained from R&D Systems (Mineapolis, Minn.). Cells were cultured for 6 days with half of the media being replenished every two days.
[…] Where TLR ligands were used to stimulate these cells, they were added to the media: LPS (500 ng/ml for DC and macrophages and 10 ng/ml for PMBC and monocytes, InvivoGen), flagellin (1 μg/ml, InvivoGen), lipoteichic acid (LTA, 10 μg/ml). Cell activation was determined by measuring TNFα and IL-1β in the culture media using ELISA kits (Invitrogen).

[2] = system: PBMC; assay: Peptide binding to and penetration of PBMC, flow cytometry; type: cell-based, human; details: 1 hr at 4° C., fixed/permeabilized, streptavidin-AF488
Procedure: PBMC re-suspended in 100 μl macrophage serum free media (3×10^6/ml) were incubated with different peptides (200 μg/ml). PBMC (100 μl) were incubated with the peptides for 1 hr at 37° C. or 4° C. Cells were washed twice in 2% FBS/PBS and incubated with streptavidin-AF488 and Zombie (NIR) Fixable viability stain-APC-Cy7 for 30 min at 4° C. Cells were then fixed with 1% PFA for 30 min at room temperature and analysed using the Fortessa analyser (BD). In some experiments, PBMC were, after incubation with peptides, incubated with Zombie (NIR) Fixable viability stain (APC-Cy7) for 30 min at 4° C. Cells were then fixed and permeabilized with BD CYTOFIX/CYTOPERM™ Kit for 20 min at 4° C., and then incubated with streptavidin-AF488 for 30 min at 4° C. In some experiments, PBMC were, after incubation with the peptides, stained with fluorescent mouse antibodies specific for monocytes (CD14/BV711), T cells (CD3/PerCP-Cy5-5) and B cells (CD19/Pacific blue). Cells were then stained with Zombie (NIR) Fixable viability stain-APC-Cy7 and streptavin-AF488, with or without membrane permeabilization. In these experiments, monocytes, T cells and B cells were separately gated to detect surface peptide binding and intracellular peptide penetration.

[3] = biological target: T1, TLR2 (Homo sapiens, UniProt O60603); assay: TLR2 binding assay (ELISA plate); set-up: purchased R&D Systems; details: for peptide binding to coated TLR2: biotin peptides at increasing concentrations
[4] = biological target: T1, TLR2; assay: TLR and NF-κB-luciferase assay in 293T cells, TLR2/TLR1/TLR6/TLR10; type: cell-based; set-up: expressed in transfected cells; host or cells: human embryonic kidney 293T cells; details: peptides 200 μg/ml, 24 hr
Procedure: TLR-mediated NF-κB activation was determined using a Dual Luciferase Reporter Assay (Promega), in which two luciferase reporter plasmids were used. […] Transfection was performed using the TurboFect Transfection Reagent (Thermo Fisher Scientific). After 24 hr, cells were harvested and cultured for 24 hr in 96-well plates coated with the purified proteins or, as controls, cultured in blank plates but stimulated with TLR ligands. Cells were lysed to measure both firefly and Renilla luciferase activities and, in each sample, the firefly activity was normalized to the Renilla luciferase activity and expressed as relative NF-κB activation.
TLRs and, where it required, co-receptors were co-transfected in a total of 4 combinations, i.e. TLR2/1/6/10, TLR4/CD14/MD2, TLR5, or TLR3/7/8/9. Two luciferase expression vectors were used: one expresses the firefly luciferase under 5 repeats of the NF-κB gene promoter and the other expresses the Renilla luciferase under the constitutively active CMV promoter (FIG. 3A).

[5] = system: PBMC; assay: PBMC activation, TNFα and IL-1β ELISA; type: cell-based, human; set-up: PBMC activation (TNFα) by FBRL peptides: dose or concentration left out as unconfirmed; details: peptides added to 50 or 160, 24 hr
[6] = biological target: T2, Recombinant human TLR2-10×His (R&D Systems) (human, UniProt O60603 21-590); assay: ELISA: biotin peptide on coated TLR2
T2 construct: Bought protein; also called His-tagged TLR2

[7] = system: autologous CD4 and CD8 T cells; assay: Antigen-loaded DC co-culture with autologous lymphocytes, proliferation; type: cell-based, human; details: DC:T 1:5, 2 weeks co-culture, CellTrace Violet
Procedure: PBMC were isolated from healthy blood donors from which monocytes were isolated to culture DC and the remaining cells (mostly lymphocytes) were stored frozen as a source of autologous lymphocytes. DC were then incubated for 24 hr with P2+G, IPA1E2 or the IPA1E2-P2+G fusion polypeptide (SEQ ID NO: 58) in round bottom 96-well plates (5×10^4 cells/well) without adding additional adjuvants. The frozen lymphocytes were revived and labelled with CellTrace Violet (2.5 μM) for 10 min at 37° C. and then added to the DC wells at 2.5×10^5 cells/well (DC:T ratio=1:5). After 2 weeks of co-culture, the proliferation of CD4+ and CD8+ T cell and CD19+ B cell was analyzed by flow cytometry.

T2 sequence (O60603 other isoform, or with tags, fused parts or gaps limits assumed): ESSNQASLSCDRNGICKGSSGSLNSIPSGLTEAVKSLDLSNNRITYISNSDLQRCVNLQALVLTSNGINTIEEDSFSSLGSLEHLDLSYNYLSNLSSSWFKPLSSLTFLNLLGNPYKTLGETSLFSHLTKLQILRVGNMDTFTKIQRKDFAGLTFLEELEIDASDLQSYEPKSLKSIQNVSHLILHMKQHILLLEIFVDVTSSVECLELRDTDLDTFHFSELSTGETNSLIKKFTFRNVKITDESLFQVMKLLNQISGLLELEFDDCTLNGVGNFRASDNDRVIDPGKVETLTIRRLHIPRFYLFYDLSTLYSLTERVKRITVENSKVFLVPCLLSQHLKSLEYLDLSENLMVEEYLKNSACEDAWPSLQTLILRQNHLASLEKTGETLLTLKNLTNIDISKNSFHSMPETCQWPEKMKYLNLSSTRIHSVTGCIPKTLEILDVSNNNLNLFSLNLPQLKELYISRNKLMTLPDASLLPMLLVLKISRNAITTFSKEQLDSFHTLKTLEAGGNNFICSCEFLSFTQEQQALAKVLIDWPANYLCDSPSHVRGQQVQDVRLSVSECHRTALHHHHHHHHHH

## GGFGGRGGGRGGFGGRGGGRGGRGGFGGRGRG (NCL-P1)
[1]; monocytes, 24 hr
  cytokine induction, soluble versus coated (immobilized) form: induced more cytokines than immobilized peptides
[1]; 24 hr
  TNFα induction from monocytes (7 NCL peptides): induced TNFα
[1]; soluble peptide 10 and 20 μg/ml
  TNFα induction from monocytes at lower concentrations: induced little TNFα
[1]; soluble peptide 80 and 160 μg/ml
  TNFα induction from monocytes at higher concentrations: strongly induced TNFα production
[2]
  intracellular pool / cell penetration (CPP activity) in PBMC: accumulate intracellular pools
[3]; TLR2 coated 2 μg/ml
  peptide binding to coated TLR2: dose-dependent and saturable binding to TLR2

## NCL(698)-HA: NCL-HA mutant in which 12 amino acids were deleted from the C-terminal end
[1]; protein coated on plates, 24 hr, ELISA
  TNFα and IL-1β production from monocytes: continued to stimulate monocytes
[3]; protein coated 10 μg/ml, TLR2 2 μg/ml
  TLR2 binding to coated NCL-HA mutants (summary experiment): bound

## NCL-P3: control peptide covering the C-terminal 12 residues of NCL outside the GAR/RGG domain (DHKPQGKKTKFE; NCL-P3)
[1]; soluble peptide 10 to 160 μg/ml, 24 hr
  TNFα induction from monocytes, all concentrations: no TNFα induction
[2]
  intracellular pool / cell penetration (CPP activity) in PBMC: no intracellular pool; also recorded: not a 12-AA non-GAR/RGG peptide
[3]; TLR2 coated 2 μg/ml
  peptide binding to coated TLR2: no detectable binding; also recorded: lacked TLR2 binding
[4]
  TLR2-mediated NF-κB activation by peptides: not observed

## RGGFGGGRGRGGGFRGRGRGG (FBRL-P2)
[5]
  PBMC activation (TNFα) by FBRL peptides: activated PBMC

## RGGFGGRGGGRGGRGGFGGRG (NCL-P6)
[1]; 24 hr
  TNFα induction from monocytes (7 NCL peptides): induced TNFα; also recorded: minor adjuvant activity
[2]
  intracellular pool / cell penetration (CPP activity) in PBMC: all lacked cell penetration; also recorded: diminished CPP activities
[3]; TLR2 coated 2 μg/ml
  concentration at which saturated TLR2 binding was reached: 80 µg/mL
  peptide binding to coated TLR2: largely replicated NCL-P2 in TLR2 binding

## RGGGFGGRGGFGDRGGRGGRGG (FBRL-P1)
[5]
  PBMC activation (TNFα) by FBRL peptides: activated PBMC

## RGGFGGRGGG (not fully specified (N-terminus), Synthetic peptide; also called NCL-4) [NCL-P4 peptide, N-terminal biotin]
[6]
  binding result: no binding (tested: 200 µg/ml)

## GGFGGRGGGRGGFGGRGGGRGGRGGFGGRGRG (not fully specified (N-terminus), Synthetic peptide) [NCL-P1 peptide (32 residues), N-terminal biotin]
[6]
  binding result: binds

## RGGRGGFGGRG (not fully specified (N-terminus), Synthetic peptide) [NCL-P5 peptide, N-terminal biotin]
[6]
  binding result: binds

B1: IPA1E2-P2+G: P2+G synthesized in fusion with the 30-AA peptide antigen IPA1E2 (peptide)
chain: GQGQLVKRPKIMRFISHLWLALESANSEKRGGFGGRGGGRGGRGGFGGRGGRGGFGGRGGFRGGRGG
modifications: IPA1E2-P2+G
notes: P2+G synthesized in fusion with the 30-AA peptide antigen IPA1E2
[7]
  T cell proliferation / activation induced by peptide-loaded DC: significantly increased T cell proliferation

## DHKPQGKKTKFE (not fully specified (N-terminus), Synthetic peptide) [NCL-P3 control peptide (C-terminal 12 residues of NCL), N-terminal biotin]
[6]
  binding result: no binding (tested: 0.64 to 1,000 ng/ml)

Reference: US20230257429A1, “PEPTIDE ADJUVANT FOR ITS THERAPEUTIC APPLICATIONS IN VIRAL AND TUMOUR VACCINE DEVELOPMENT AND CANCER IMMUNOTHERAPY AND AUTOIMMUNE DISEASE DIAGNOSIS AND TREATMENTS” (National University of Singapore, priority 2020, published 2023)
